System: 648629-189-R-J1-PDC complex spheroids viability
Assay: Anticancer human tumor 648629-189-R-J1-PDC patient-derived bladder carcinoma cell line growth inhibition [CLK]
Settings: for IC50: curve of first compound; for viability, T/C: stronger effect = lower value
In short: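 Multi-cell-type spheroids combined patient-derived tumor cells with HUVEC endothelial cells and human mesenchymal stem cells. Paired agents were dosed in half-log steps down from about clinical Cmax, or from 10 microM where Cmax was unknown.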

[1] = second compound 0.0316 µM, first compound 0.0316 µM
[2] = second compound 0.0316 µM, first compound 0.1 µM
[3] = second compound 0.0316 µM, first compound 0.316 µM
[4] = second compound 0.0316 µM, first compound 1 µM
[5] = second compound 0.0316 µM, first compound 3.16 µM
[6] = second compound 0.0316 µM, first compound 10 µM
[7] = second compound 0.1 µM, first compound 0.0316 µM
[8] = second compound 0.1 µM, first compound 0.1 µM
[9] = second compound 0.1 µM, first compound 0.316 µM
[10] = second compound 0.1 µM, first compound 1 µM
[11] = second compound 0.1 µM, first compound 3.16 µM
[12] = second compound 0.1 µM, first compound 10 µM
[13] = second compound 0.316 µM, first compound 0.0316 µM
[14] = second compound 0.316 µM, first compound 0.1 µM
[15] = second compound 0.316 µM, first compound 0.316 µM
[16] = second compound 0.316 µM, first compound 1 µM
[17] = second compound 0.316 µM, first compound 3.16 µM
[18] = second compound 0.316 µM, first compound 10 µM
[19] = second compound 1 µM, first compound 0.0316 µM
[20] = second compound 1 µM, first compound 0.1 µM
[21] = second compound 1 µM, first compound 0.316 µM
[22] = second compound 1 µM, first compound 1 µM
[23] = second compound 1 µM, first compound 3.16 µM
[24] = second compound 1 µM, first compound 10 µM
[25] = second compound 3.16 µM, first compound 0.0316 µM
[26] = second compound 3.16 µM, first compound 0.1 µM
[27] = second compound 3.16 µM, first compound 0.316 µM
[28] = second compound 3.16 µM, first compound 1 µM
[29] = second compound 3.16 µM, first compound 3.16 µM
[30] = second compound 3.16 µM, first compound 10 µM
[31] = second compound 10 µM, first compound 0.0316 µM
[32] = second compound 10 µM, first compound 0.1 µM
[33] = second compound 10 µM, first compound 0.316 µM
[34] = second compound 10 µM, first compound 1 µM
[35] = second compound 10 µM, first compound 3.16 µM
[36] = second compound 10 µM, first compound 10 µM
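For viability, T/C in this document: drug exposure lasted seven days before viability readout; 100% = DMSO vehicle control wells.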

SMILES: NC(=O)C(=Cn1cnc(-c2cc(C(F)(F)F)cc(C(F)(F)F)c2)n1)c1cncnc1 + CNC(=O)c1ccc(Nc2nc(OC3CCCC3)c3c(-c4ccc5nc(C)oc5c4)c[nH]c3n2)c(OC)c1
- IC50 (second compound 0.0316 µM): 52.2 nM
- IC50 (second compound 0.1 µM): 44.5 nM
- IC50 (second compound 0.316 µM): < 9.49 nM
- IC50 (second compound 1 µM): < 9.49 nM
- IC50 (second compound 3.16 µM): < 9.49 nM
- IC50 (second compound 10 µM): < 9.49 nM
- viability, T/C (second compound 0.0316 µM, first compound 0.00949 µM): 99%
- viability, T/C (second compound 0.0316 µM, first compound 0.03 µM): 83.4%
- viability, T/C (second compound 0.0316 µM, first compound 0.0949 µM): 13.9%
- viability, T/C (second compound 0.0316 µM, first compound 0.3 µM): 5.54%
- viability, T/C (second compound 0.0316 µM, first compound 0.949 µM): 2.71%
- viability, T/C (second compound 0.0316 µM, first compound 3 µM): 2.7%
- viability, T/C (second compound 0.1 µM, first compound 0.00949 µM): 94.1%
- viability, T/C (second compound 0.1 µM, first compound 0.03 µM): 68.2%
- viability, T/C (second compound 0.1 µM, first compound 0.0949 µM): 14.8%
- viability, T/C (second compound 0.1 µM, first compound 0.3 µM): 4.73%
- viability, T/C (second compound 0.1 µM, first compound 0.949 µM): 2.15%
- viability, T/C (second compound 0.1 µM, first compound 3 µM): 2.48%
- viability, T/C (second compound 0.316 µM, first compound 0.00949 µM): 22.4%
- viability, T/C (second compound 0.316 µM, first compound 0.03 µM): 17.4%
- viability, T/C (second compound 0.316 µM, first compound 0.0949 µM): 7.71%
- viability, T/C (second compound 0.316 µM, first compound 0.3 µM): 2.5%
- viability, T/C (second compound 0.316 µM, first compound 0.949 µM): 1.35%
- viability, T/C (second compound 0.316 µM, first compound 3 µM): 2.05%
- viability, T/C (second compound 1 µM, first compound 0.00949 µM): 18.1%
- viability, T/C (second compound 1 µM, first compound 0.03 µM): 11.5%
- viability, T/C (second compound 1 µM, first compound 0.0949 µM): 4.85%
- viability, T/C (second compound 1 µM, first compound 0.3 µM): 1.29%
- viability, T/C (second compound 1 µM, first compound 0.949 µM): 0.91%
- viability, T/C (second compound 1 µM, first compound 3 µM): 0.42%
- viability, T/C (second compound 3.16 µM, first compound 0.00949 µM): 14.7%
- viability, T/C (second compound 3.16 µM, first compound 0.03 µM): 11.7%
- viability, T/C (second compound 3.16 µM, first compound 0.0949 µM): 5.56%
- viability, T/C (second compound 3.16 µM, first compound 0.3 µM): 1.15%
- viability, T/C (second compound 3.16 µM, first compound 0.949 µM): 1.87%
- viability, T/C (second compound 3.16 µM, first compound 3 µM): 1.75%
- viability, T/C (second compound 10 µM, first compound 0.00949 µM): 15.4%
- viability, T/C (second compound 10 µM, first compound 0.03 µM): 8.85%
- viability, T/C (second compound 10 µM, first compound 0.0949 µM): 5.59%
- viability, T/C (second compound 10 µM, first compound 0.3 µM): 1.56%
- viability, T/C (second compound 10 µM, first compound 0.949 µM): 1.79%
- viability, T/C (second compound 10 µM, first compound 3 µM): 0.33%

SMILES: COC1C=CCC(C)C(C)S(=O)(=O)NC(=O)c2ccc3c(c2)N(CC2CCC21)CC1(CCCc2cc(Cl)ccc21)CO3 (stereo unspecified) + CNC(=O)c1ccc(Nc2nc(OC3CCCC3)c3c(-c4ccc5nc(C)oc5c4)c[nH]c3n2)c(OC)c1
- IC50 (second compound 0.0316 µM): 1790 nM
- IC50 (second compound 0.1 µM): 1840 nM
- IC50 (second compound 0.316 µM): < 31.6 nM
- IC50 (second compound 1 µM): < 31.6 nM
- IC50 (second compound 3.16 µM): < 31.6 nM
- IC50 (second compound 10 µM): < 31.6 nM
- viability, T/C [1]: 107%
- viability, T/C [2]: 89%
- viability, T/C [3]: 91.6%
- viability, T/C [4]: 80.7%
- viability, T/C [5]: 20.1%
- viability, T/C [6]: 4.12%
- viability, T/C [7]: 82.8%
- viability, T/C [8]: 97.5%
- viability, T/C [9]: 83.8%
- viability, T/C [10]: 88.5%
- viability, T/C [11]: 16.3%
- viability, T/C [12]: 4.69%
- viability, T/C [13]: 27.2%
- viability, T/C [14]: 23.6%
- viability, T/C [15]: 24.2%
- viability, T/C [16]: 14%
- viability, T/C [17]: 8.44%
- viability, T/C [18]: 2.86%
- viability, T/C [19]: 19.5%
- viability, T/C [20]: 20.7%
- viability, T/C [21]: 16.3%
- viability, T/C [22]: 10.1%
- viability, T/C [23]: 6.11%
- viability, T/C [24]: 3.77%
- viability, T/C [25]: 21.5%
- viability, T/C [26]: 18.3%
- viability, T/C [27]: 16.7%
- viability, T/C [28]: 10.5%
- viability, T/C [29]: 6.62%
- viability, T/C [30]: 3.31%
- viability, T/C [31]: 17.1%
- viability, T/C [32]: 16.5%
- viability, T/C [33]: 15.2%
- viability, T/C [34]: 11.4%
- viability, T/C [35]: 6.23%
- viability, T/C [36]: 3.81%

SMILES: COc1ccc([C@@H](O)c2cc(-c3ncnc4cc(N5CCOCC5)ccc34)c(F)cc2Cl)nn1 + CNC(=O)c1ccc(Nc2nc(OC3CCCC3)c3c(-c4ccc5nc(C)oc5c4)c[nH]c3n2)c(OC)c1
- IC50 (second compound 0.0316 µM): 9760 nM
- IC50 (second compound 0.1 µM): 7740 nM
- IC50 (second compound 0.316 µM): < 31.6 nM
- IC50 (second compound 1 µM): < 31.6 nM
- IC50 (second compound 3.16 µM): < 31.6 nM
- IC50 (second compound 10 µM): < 31.6 nM
- viability, T/C [1]: 105%
- viability, T/C [2]: 93%
- viability, T/C [3]: 97%
- viability, T/C [4]: 85.3%
- viability, T/C [5]: 67.4%
- viability, T/C [6]: 49.7%
- viability, T/C [7]: 90.6%
- viability, T/C [8]: 89.3%
- viability, T/C [9]: 83.7%
- viability, T/C [10]: 82%
- viability, T/C [11]: 60.5%
- viability, T/C [12]: 47%
- viability, T/C [13]: 30.8%
- viability, T/C [14]: 27%
- viability, T/C [15]: 26.8%
- viability, T/C [16]: 24.6%
- viability, T/C [17]: 22.4%
- viability, T/C [18]: 24.2%
- viability, T/C [19]: 20.2%
- viability, T/C [20]: 22.2%
- viability, T/C [21]: 20.5%
- viability, T/C [22]: 17.5%
- viability, T/C [23]: 22.4%
- viability, T/C [24]: 16%
- viability, T/C [25]: 21.3%
- viability, T/C [26]: 20.5%
- viability, T/C [27]: 20.4%
- viability, T/C [28]: 15%
- viability, T/C [29]: 19.2%
- viability, T/C [30]: 18.1%
- viability, T/C [31]: 19.6%
- viability, T/C [32]: 17.1%
- viability, T/C [33]: 21.7%
- viability, T/C [34]: 20.1%
- viability, T/C [35]: 19.1%
- viability, T/C [36]: 15.7%

— PubChem BioAssay AID2060602 (Molecular Pharmacology Branch, DTP, NCI, 2025)
